One may read the melting point as the temperature, or range, at which the solid turns liquid.

The subject of one series is Uromyces viciae-fabae. As to the kind of experiment: Uromyces viciae-fabae / field bean / leaf disc preventative (faba-bean rust). It counts as in vivo. As to conditions: foliar, 288 h, 100 ppm in the applied formulation, compared to untreated control, read-out: disease control. How it is done:
(§1) Leaf disks or leaf segments of various plant species are cut from plants grown in a greenhouse. The cut leaf disks or segments are placed in multiwell plates (24-well format) onto water agar. The leaf disks are sprayed with a test solution before (preventative) or after (curative) inoculation. Compounds to be tested are prepared as DMSO solutions (max. 10 mg/ml) which are diluted to the appropriate concentration with 0.025% Tween20 just before spraying. The inoculated leaf disks or segments are incubated under defined conditions (temperature, relative humidity, light, etc.) according to the respective test system. A single evaluation of disease level is carried out 3 to 14 days after inoculation, depending on the pathosystem. Percent disease control relative to the untreated check leaf disks or segments is then calculated.
Field bean leaf discs are placed on water agar in multiwell plates (96-well format) and 10 μl of the formulated test compound diluted in acetone and a spreader pipetted onto the leaf disc. Two hours after application leaf discs are inoculated by spraying a spore suspension on the lower leaf surface. The leaf discs are incubated in a climate cabinet at 22° C. with 18 hour day and 70% relative humidity. The activity of a compound is assessed as percent disease control compared to untreated when an appropriate level of disease damage appears in untreated check leaf disks (12 days after application).
The following compounds at 100 ppm in the applied formulation give at least 80% disease control in this test when compared to untreated control leaf discs under the same conditions, which show extensive disease development.

The subject of series [1] is Glomerella lacenarium (Colletotrichum lacenarium). As to the kind of experiment: Glomerella lacenarium (Colletotrichum lacenarium) liquid culture / cucumber / preventative (anthracnose). Type of series: cell-based. As to conditions: 20 ppm in the applied formulation, growth inhibition measured photometrically, compared to untreated control, read-out: disease control. How it is done: Mycelia fragments or conidia suspensions of a fungus prepared either freshly from liquid cultures of the fungus or from cryogenic storage, are directly mixed into nutrient broth. DMSO solutions of the test compound (max. 10 mg/ml) are diluted with 0.025% Tween20 by a factor of 50 and 10 μl of this solution is pipetted into a microtiter plate (96-well format). The nutrient broth containing the fungal spores/mycelia fragments is then added to give an end concentration of the tested compound. The test plates are incubated in the dark at 24° C. and 96% relative humidity. The inhibition of fungal growth is determined photometrically after 2 to 7 days, depending on the pathosystem, and percent antifungal activity relative to the untreated check is calculated.
Conidia of the fungus from cryogenic storage are directly mixed into nutrient broth (PDB—potato dextrose broth). After placing a (DMSO) solution of test compound into a microtiter plate (96-well format), the nutrient broth containing the fungal spores is added. The test plates are incubated at 24° C. and the inhibition of growth is measured photometrically 3 to 4 days after application.
The following compounds at 20 ppm in the applied formulation give at least 80% disease control in this test when compared to untreated control under the same conditions, which show extensive disease development.

The subject of series [2] is Puccinia recondita f. Sp. tritici. As to the kind of experiment: Puccinia recondita f. sp. tritici / wheat / leaf disc preventative (brown rust). It counts as in vivo. As to conditions: foliar, 200 ppm in the applied formulation, compared to untreated control, read-out: disease control. How it is done: as §1, with “calculated. Wheat leaf segments cv. Kanzler were placed on agar in multiwell plates (24-well format) and sprayed with the formulated test compound diluted in water. The leaf disks were inoculated with a spore suspension of the fungus 1 day after application. The inoculated leaf segments were incubated at 19° C. and 75% relative humidity (rh) under a light regime of 12 hours light/12 hours darkness in a climate cabinet and the activity of a compound was assessed as percent disease control compared to untreated when an appropriate level of disease damage appears in untreated check leaf segments (7 to 9 days after application). The following compounds at 200 ppm in the applied formulation give at least 80% disease control in this test when compared to untreated control leaf disks under the same conditions, which show extensive disease development.” for “calculated.”

In another series the test system is Phakopsora pachyrhizi. In words: Phakopsora pachyrhizi / soybean / leaf disc preventative (Asian soybean rust). Type of series: in vivo. To be noted: foliar, 200 ppm in the applied formulation, compared to untreated control, read-out: disease control. How it is done: as §1
Soybean leaf disks are placed on water agar in multiwell plates (24-well format) and sprayed with the formulated test compound diluted in water. One day after application leaf discs are inoculated by spraying a spore suspension on the lower leaf surface. After an incubation period in a climate cabinet of 24-36 hours in darkness at 20° C. and 75% rh leaf disc are kept at 20° C. with 12 h light/day and 75% rh. The activity of a compound is assessed as percent disease control compared to untreated when an appropriate level of disease damage appears in untreated check leaf disks (12 to 14 days after application).
(§2) The following compounds at 200 ppm in the applied formulation give at least 80% disease control in this test when compared to untreated control leaf disks under the same conditions, which show extensive disease development.

In series [3] the test system is Puccinia recondita f. Sp. tritici. As to the kind of experiment: Puccinia recondita f. sp. tritici / wheat / leaf disc curative (brown rust). As to conditions: foliar, 200 ppm in the applied formulation, compared to untreated control, read-out: disease control. Type of series: in vivo. How it is done:
as §1
Wheat leaf segments cv. Kanzler are placed on agar in multiwell plates (24-well format). The leaf segments are then inoculated with a spore suspension of the fungus. Plates were stored in darkness at 19° C. and 75% relative humidity. The formulated test compound diluted in water was applied 1 day after inoculation. The leaf segments were incubated at 19° C. and 75% relative humidity under a light regime of 12 hours light/12 hours darkness in a climate cabinet and the activity of a compound was assessed as percent disease control compared to untreated when an appropriate level of disease damage appears in untreated check leaf segments (6 to 8 days after application).
as §2

Take `CC(C)(C)C(=O)c1ccc(-c2noc(C(F)(F)F)n2)cc1` [Compound 1.4, 2,2-dimethyl-1-[4-[5-(trifluoromethyl)-1,2,4-oxadiazol-3-yl]phenyl]propan-1-one]: the pest or weed control at 100 ppm in the series on Uromyces viciae-fabae is ≥ 80%.

Consider `CCCCC(O)c1ccc(-c2noc(C(F)(F)F)n2)cc1` (stereo not drawn) [Compound 2.3, 1-[4-[5-(trifluoromethyl)-1,2,4-oxadiazol-3-yl]phenyl]pentan-1-ol], for which the pest or weed control at 100 ppm in the series with Uromyces viciae-fabae was ≥ 80%.

For the compound `O=C(c1ccc(-c2noc(C(F)(F)F)n2)cc1)C1CC1` [Compound 1.9, cyclopropyl-[4-[5-(trifluoromethyl)-1,2,4-oxadiazol-3-yl]phenyl]methanone], the melting point lay within 58 to 62 °C. For the same compound, the inhibition of growth at 20 ppm in series [1] was ≥ 80%. Also, in the series on Uromyces viciae-fabae, the pest or weed control at 100 ppm was ≥ 80%.

`CC(=O)c1ccc(-c2noc(C(F)(F)F)n2)cc1` [Compound 1.2, 1-[4-[5-(trifluoromethyl)-1,2,4-oxadiazol-3-yl]phenyl]ethanone] gave a melting point of 105 to 115 °C. For the same compound, in the series on Uromyces viciae-fabae, the pest or weed control at 100 ppm is ≥ 80%.

`O=C(c1ccc(-c2noc(C(F)(F)F)n2)cc1)c1nccs1` [Compound 1.24, thiazol-2-yl-[4-[5-(trifluoromethyl)-1,2,4-oxadiazol-3-yl]phenyl]methanone] showed a melting point of 84 to 90 °C. Besides, the pest or weed control at 200 ppm in series [2] was ≥ 80%. Further, in the series on Phakopsora pachyrhizi, the pest or weed control at 200 ppm was ≥ 80%. Moreover, in series [3], the pest or weed control at 200 ppm is ≥ 80%. In series [1], the inhibition of growth at 20 ppm is ≥ 80%.

`Cc1ccnc(C(=O)c2ccc(-c3noc(C(F)(F)F)n3)cc2)c1` [Compound 1.27, (4-methyl-2-pyridyl)-[4-[5-(trifluoromethyl)-1,2,4-oxadiazol-3-yl]phenyl]methanone] gave a melting point of 76 to 81 °C. In addition, the pest or weed control at 200 ppm in series [2] is ≥ 80%. Further, in the series with Phakopsora pachyrhizi, the pest or weed control at 200 ppm is ≥ 80%. Besides, the pest or weed control at 200 ppm in series [3] was ≥ 80%. In addition, the inhibition of growth at 20 ppm in series [1] was ≥ 80%.

In the case of `C/C=C/CC(O)c1ccc(-c2noc(C(F)(F)F)n2)cc1` (stereo not drawn) [Compound 2.9, 1-[4-[5-(trifluoromethyl)-1,2,4-oxadiazol-3-yl]phenyl]pent-3-en-1-ol], the inhibition of growth at 20 ppm in series [1] was ≥ 80%. Also, the pest or weed control at 100 ppm in the series with Uromyces viciae-fabae is ≥ 80%.

On to `O=C(c1ccc(-c2noc(C(F)(F)F)n2)cc1)c1ccccn1` [Compound 1.16, 2-pyridyl-[4-[5-(trifluoromethyl)-1,2,4-oxadiazol-3-yl]phenyl]methanone], for which the melting point is 66 to 70 °C. For the same compound, in series [2], the pest or weed control at 200 ppm was ≥ 80%. Besides, the pest or weed control at 200 ppm in the series with Phakopsora pachyrhizi was ≥ 80%. For the same compound, the pest or weed control at 200 ppm in series [3] was ≥ 80%. Also, in series [1], the inhibition of growth at 20 ppm was ≥ 80%.

For the compound `CCn1cc(C(=O)c2ccc(-c3noc(C(F)(F)F)n3)cc2)cn1` [Compound 1.17, (1-ethylpyrazol-4-yl)-[4-[5-(trifluoromethyl)-1,2,4-oxadiazol-3-yl]phenyl]methanone], the melting point is 80 to 86 °C. Moreover, the pest or weed control at 200 ppm in series [2] was ≥ 80%. The pest or weed control at 200 ppm in the series with Phakopsora pachyrhizi was ≥ 80%. Moreover, the pest or weed control at 200 ppm in series [3] is ≥ 80%. Besides, the inhibition of growth at 20 ppm in series [1] is ≥ 80%.

`O=C(c1ccc(OC(F)(F)F)cc1)c1ccc(-c2noc(C(F)(F)F)n2)cc1` [Compound 1.6, [4-(trifluoromethoxy)phenyl]-[4-[5-(trifluoromethyl)-1,2,4-oxadiazol-3-yl]phenyl]methanone] returned a melting point of 104 to 107 °C. Further, the pest or weed control at 100 ppm in the series on Uromyces viciae-fabae is ≥ 80%.

For the compound `Cc1cc(C(O)c2ccc(-c3noc(C(F)(F)F)n3)cc2)on1` (stereo not drawn) [Compound 2.14, (3-methylisoxazol-5-yl)-[4-[5-(trifluoromethyl)-1,2,4-oxadiazol-3-yl]phenyl]methanol], the melting point was 84 to 90 °C. Moreover, the pest or weed control at 200 ppm in series [2] was ≥ 80%. The pest or weed control at 200 ppm in the series on Phakopsora pachyrhizi is ≥ 80%. For the same compound, in series [3], the pest or weed control at 200 ppm was ≥ 80%. Moreover, in series [1], the inhibition of growth at 20 ppm is ≥ 80%.

The record behind these values is patent publication US11026427B2, “Microbiocidal oxadiazole derivatives” (SYNGENTA PARTICIPATIONS AG, priority 2016, dated 2021).
